Experimental data published in patent EP4722212A1, “NOVEL COMPOUND FOR INHIBITING PROTEIN KINASES AND PHARMACEUTICAL COMPOSITION COMPRISING SAME” (Magicbullettherapeutics Co., Ltd., priority 2023, dated 2024).
Like-named read-outs stand apart in the source and are kept apart here.

Assays:
Assay in all cases: Kinase panel
Assay type in all cases: biochemical
STK38/NDR1 = STK38/NDR1 (Homo sapiens, UniProt Q15208); conditions: STK38/NDR1, 1 µM; read-out: residual enzyme activity
Summary of the method: (§1)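 Residual enzyme activity is given for kinases screened biochemically with compound at a fixed 1 µM. Kinases showing ≤40% residual activity (≥60% inhibition) were identified as inhibited.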

ITK = ITK (Homo sapiens, UniProt Q08881); conditions: read-out: residual enzyme activity
Summary of the method: as §1

DYRK1B = DYRK1B (Homo sapiens, UniProt Q9Y463); conditions: read-out: residual enzyme activity
Summary of the method: as §1

GRK7 = GRK7 (Homo sapiens, UniProt Q8WTQ7); conditions: GRK7, 1 µM; read-out: residual enzyme activity
Chain of GRK7 (Q8WTQ7 whole entry, species assumed): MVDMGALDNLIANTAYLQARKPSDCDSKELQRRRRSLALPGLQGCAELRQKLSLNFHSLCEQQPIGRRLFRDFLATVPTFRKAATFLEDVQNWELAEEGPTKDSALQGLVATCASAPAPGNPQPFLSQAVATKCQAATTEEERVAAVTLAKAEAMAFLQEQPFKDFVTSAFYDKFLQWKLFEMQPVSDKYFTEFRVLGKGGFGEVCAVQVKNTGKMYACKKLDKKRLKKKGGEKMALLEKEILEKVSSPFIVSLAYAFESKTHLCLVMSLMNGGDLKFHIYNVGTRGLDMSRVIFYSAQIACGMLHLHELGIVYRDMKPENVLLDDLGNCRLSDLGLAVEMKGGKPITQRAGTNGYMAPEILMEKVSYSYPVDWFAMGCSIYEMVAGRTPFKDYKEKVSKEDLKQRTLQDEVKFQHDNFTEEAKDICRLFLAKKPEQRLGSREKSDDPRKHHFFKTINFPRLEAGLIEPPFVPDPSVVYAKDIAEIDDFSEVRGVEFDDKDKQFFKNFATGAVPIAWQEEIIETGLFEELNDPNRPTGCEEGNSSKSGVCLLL
Summary of the method: as §1

TSSK2 = TSSK2 (Homo sapiens, UniProt Q96PF2); conditions: TSSK2, 1 µM; read-out: residual enzyme activity
Summary of the method: as §1

TBK1 = TBK1 (Homo sapiens, UniProt Q9UHD2); conditions: TBK1, 1 µM; read-out: residual enzyme activity
Summary of the method: as §1

CAMK1A = CAMK1A (Homo sapiens, UniProt Q14012); conditions: read-out: residual enzyme activity
Summary of the method: as §1

SNARK/NUAK2 = SNARK/NUAK2 (Homo sapiens, UniProt Q9H093); conditions: SNARK/NUAK2, 1 µM; read-out: residual enzyme activity
Summary of the method: as §1

P38B/MAPK11 = P38B/MAPK11 (Homo sapiens, UniProt Q15759); conditions: read-out: residual enzyme activity
Summary of the method: as §1

TEC = TEC (Homo sapiens, UniProt P42680); conditions: read-out: residual enzyme activity
Summary of the method: as §1

CAMK1D = CAMK1D (Homo sapiens, UniProt Q8IU85); conditions: read-out: residual enzyme activity
Summary of the method: as §1

BRSK2 = BRSK2 (Homo sapiens, UniProt Q8IWQ3); conditions: BRSK2, 1 µM; read-out: residual enzyme activity
Summary of the method: as §1

DDR1 = DDR1 (Homo sapiens, UniProt Q08345); conditions: DDR1, 1 µM; read-out: residual enzyme activity
Summary of the method: as §1

ERN1/IRE1 = ERN1/IRE1 (Homo sapiens, UniProt O75460); conditions: ERN1/IRE1, 1 µM; read-out: residual enzyme activity
Summary of the method: as §1

PLK3 = PLK3 (Homo sapiens, UniProt Q9H4B4); conditions: PLK3, 1 µM; read-out: residual enzyme activity
Summary of the method: as §1

LYN = LYN (Homo sapiens, UniProt P07948); conditions: read-out: residual enzyme activity
Chain of LYN (P07948 whole entry, species assumed): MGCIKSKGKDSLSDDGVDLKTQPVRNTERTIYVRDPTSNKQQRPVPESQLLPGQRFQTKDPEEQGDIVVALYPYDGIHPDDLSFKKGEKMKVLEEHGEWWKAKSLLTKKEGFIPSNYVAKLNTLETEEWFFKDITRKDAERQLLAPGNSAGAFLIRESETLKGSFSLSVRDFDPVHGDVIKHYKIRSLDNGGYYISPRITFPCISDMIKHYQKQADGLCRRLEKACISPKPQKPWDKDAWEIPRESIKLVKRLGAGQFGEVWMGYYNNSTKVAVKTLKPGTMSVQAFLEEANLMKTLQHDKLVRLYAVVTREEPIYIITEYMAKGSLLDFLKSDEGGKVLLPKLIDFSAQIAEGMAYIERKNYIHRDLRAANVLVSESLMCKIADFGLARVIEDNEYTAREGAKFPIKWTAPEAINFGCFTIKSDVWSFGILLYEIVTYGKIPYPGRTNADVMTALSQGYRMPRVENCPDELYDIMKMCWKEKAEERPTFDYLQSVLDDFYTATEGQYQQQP
Summary of the method: as §1

CK1G2 = CK1G2 (Homo sapiens, UniProt P78368); conditions: read-out: residual enzyme activity
Summary of the method: as §1

FGR = FGR (Homo sapiens, UniProt P09769); conditions: read-out: residual enzyme activity
Summary of the method: as §1

IR = IR (Homo sapiens, UniProt P06213); conditions: read-out: residual enzyme activity
Summary of the method: as §1

GRK6 = GRK6 (Homo sapiens, UniProt P43250); conditions: GRK6, 1 µM; read-out: residual enzyme activity
Summary of the method: as §1

PKCETA = PKCETA (Homo sapiens, UniProt P24723); conditions: read-out: residual enzyme activity
Summary of the method: as §1

YSK4/MAP3K19 = YSK4/MAP3K19 (Homo sapiens, UniProt Q56UN5); conditions: YSK4/MAP3K19, 1 µM; read-out: residual enzyme activity
Chain of YSK4/MAP3K19 (Q56UN5 whole entry): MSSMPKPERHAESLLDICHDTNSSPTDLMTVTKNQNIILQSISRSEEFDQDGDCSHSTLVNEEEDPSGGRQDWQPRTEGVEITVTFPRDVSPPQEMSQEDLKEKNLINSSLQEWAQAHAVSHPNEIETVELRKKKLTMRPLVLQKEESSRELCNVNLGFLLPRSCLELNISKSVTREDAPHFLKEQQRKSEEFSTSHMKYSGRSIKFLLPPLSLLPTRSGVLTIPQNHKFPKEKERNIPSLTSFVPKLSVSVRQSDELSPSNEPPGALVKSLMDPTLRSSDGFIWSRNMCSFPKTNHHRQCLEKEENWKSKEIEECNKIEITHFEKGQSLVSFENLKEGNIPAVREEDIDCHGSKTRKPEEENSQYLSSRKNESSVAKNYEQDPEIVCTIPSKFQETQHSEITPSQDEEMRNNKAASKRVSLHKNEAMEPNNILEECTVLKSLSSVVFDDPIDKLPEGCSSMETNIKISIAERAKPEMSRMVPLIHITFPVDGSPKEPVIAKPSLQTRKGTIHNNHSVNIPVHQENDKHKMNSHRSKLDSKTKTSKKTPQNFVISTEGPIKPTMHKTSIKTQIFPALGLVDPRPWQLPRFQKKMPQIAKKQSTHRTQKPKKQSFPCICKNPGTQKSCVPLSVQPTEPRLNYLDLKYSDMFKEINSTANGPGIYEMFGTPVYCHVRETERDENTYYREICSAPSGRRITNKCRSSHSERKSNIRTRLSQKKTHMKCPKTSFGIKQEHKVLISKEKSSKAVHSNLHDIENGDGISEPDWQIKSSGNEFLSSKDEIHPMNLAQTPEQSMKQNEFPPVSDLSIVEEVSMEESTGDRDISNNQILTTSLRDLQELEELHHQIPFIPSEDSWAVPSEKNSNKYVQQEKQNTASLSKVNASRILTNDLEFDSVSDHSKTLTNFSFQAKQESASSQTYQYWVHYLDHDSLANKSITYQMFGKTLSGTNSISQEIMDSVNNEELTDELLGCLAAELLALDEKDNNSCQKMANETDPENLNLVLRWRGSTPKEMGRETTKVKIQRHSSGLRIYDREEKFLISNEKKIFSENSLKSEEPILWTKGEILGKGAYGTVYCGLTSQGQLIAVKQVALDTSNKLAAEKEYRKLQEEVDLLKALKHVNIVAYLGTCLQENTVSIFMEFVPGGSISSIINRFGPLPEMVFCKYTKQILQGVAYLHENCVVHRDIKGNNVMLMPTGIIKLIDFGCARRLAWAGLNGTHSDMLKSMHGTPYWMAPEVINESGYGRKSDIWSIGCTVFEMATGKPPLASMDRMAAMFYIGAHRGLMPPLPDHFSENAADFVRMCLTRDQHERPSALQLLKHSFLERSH
Summary of the method: as §1

ZAP70 = ZAP70 (Homo sapiens, UniProt P43403); conditions: ZAP70, 1 µM; read-out: residual enzyme activity
Summary of the method: as §1

AURORA A = AURORA A (Homo sapiens, UniProt O14965); conditions: read-out: residual enzyme activity
Summary of the method: as §1

CK1D = CK1D (Homo sapiens, UniProt P48730); conditions: read-out: residual enzyme activity
Summary of the method: as §1

ALK4/ACVR1B = ALK4/ACVR1B (Homo sapiens, UniProt P36896); conditions: read-out: residual enzyme activity
Summary of the method: as §1

CDK1/CYCLIN E = CDK1/CYCLIN E (Homo sapiens, UniProt P06493); conditions: read-out: residual enzyme activity
Summary of the method: as §1

VRK1 = VRK1 (Homo sapiens, UniProt Q99986); conditions: VRK1, 1 µM; read-out: residual enzyme activity
Summary of the method: as §1

MYLK3 = MYLK3 (Homo sapiens, UniProt Q32MK0); conditions: MYLK3, 1 µM; read-out: residual enzyme activity
Summary of the method: as §1

RSK1 = RSK1 (Homo sapiens, UniProt Q15418); conditions: RSK1, 1 µM; read-out: residual enzyme activity
Summary of the method: as §1

NEK3 = NEK3 (Homo sapiens, UniProt P51956); conditions: NEK3, 1 µM; read-out: residual enzyme activity
Summary of the method: as §1

BRSK1 = BRSK1 (Homo sapiens, UniProt Q8TDC3); conditions: BRSK1, 1 µM; read-out: residual enzyme activity
Summary of the method: as §1

PKG2/PRKG2 = PKG2/PRKG2 (Homo sapiens, UniProt Q13237); conditions: PKG2/PRKG2, 1 µM; read-out: residual enzyme activity
Chain of PKG2/PRKG2 (Q13237 whole entry): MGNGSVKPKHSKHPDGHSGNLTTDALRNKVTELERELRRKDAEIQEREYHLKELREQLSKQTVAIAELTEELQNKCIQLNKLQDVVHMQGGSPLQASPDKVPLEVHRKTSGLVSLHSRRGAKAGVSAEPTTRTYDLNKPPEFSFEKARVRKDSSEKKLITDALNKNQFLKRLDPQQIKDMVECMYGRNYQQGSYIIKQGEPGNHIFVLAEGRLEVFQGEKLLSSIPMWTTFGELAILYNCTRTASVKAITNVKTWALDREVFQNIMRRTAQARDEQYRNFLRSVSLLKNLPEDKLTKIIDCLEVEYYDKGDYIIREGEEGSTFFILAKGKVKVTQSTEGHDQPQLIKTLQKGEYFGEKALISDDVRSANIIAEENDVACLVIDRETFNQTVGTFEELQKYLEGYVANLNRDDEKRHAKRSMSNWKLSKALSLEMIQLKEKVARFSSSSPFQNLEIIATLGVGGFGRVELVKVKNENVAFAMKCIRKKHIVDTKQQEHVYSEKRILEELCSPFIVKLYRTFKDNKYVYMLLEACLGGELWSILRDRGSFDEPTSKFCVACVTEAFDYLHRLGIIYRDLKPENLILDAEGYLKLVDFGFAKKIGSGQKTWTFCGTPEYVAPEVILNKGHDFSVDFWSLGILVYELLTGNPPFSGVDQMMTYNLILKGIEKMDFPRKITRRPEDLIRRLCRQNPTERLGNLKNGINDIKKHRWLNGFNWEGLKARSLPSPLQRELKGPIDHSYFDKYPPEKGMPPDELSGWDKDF
Summary of the method: as §1

WNK3 = WNK3 (Homo sapiens, UniProt Q9BYP7); conditions: WNK3, 1 µM; read-out: residual enzyme activity
Chain of WNK3 (Q9BYP7 whole entry, species assumed): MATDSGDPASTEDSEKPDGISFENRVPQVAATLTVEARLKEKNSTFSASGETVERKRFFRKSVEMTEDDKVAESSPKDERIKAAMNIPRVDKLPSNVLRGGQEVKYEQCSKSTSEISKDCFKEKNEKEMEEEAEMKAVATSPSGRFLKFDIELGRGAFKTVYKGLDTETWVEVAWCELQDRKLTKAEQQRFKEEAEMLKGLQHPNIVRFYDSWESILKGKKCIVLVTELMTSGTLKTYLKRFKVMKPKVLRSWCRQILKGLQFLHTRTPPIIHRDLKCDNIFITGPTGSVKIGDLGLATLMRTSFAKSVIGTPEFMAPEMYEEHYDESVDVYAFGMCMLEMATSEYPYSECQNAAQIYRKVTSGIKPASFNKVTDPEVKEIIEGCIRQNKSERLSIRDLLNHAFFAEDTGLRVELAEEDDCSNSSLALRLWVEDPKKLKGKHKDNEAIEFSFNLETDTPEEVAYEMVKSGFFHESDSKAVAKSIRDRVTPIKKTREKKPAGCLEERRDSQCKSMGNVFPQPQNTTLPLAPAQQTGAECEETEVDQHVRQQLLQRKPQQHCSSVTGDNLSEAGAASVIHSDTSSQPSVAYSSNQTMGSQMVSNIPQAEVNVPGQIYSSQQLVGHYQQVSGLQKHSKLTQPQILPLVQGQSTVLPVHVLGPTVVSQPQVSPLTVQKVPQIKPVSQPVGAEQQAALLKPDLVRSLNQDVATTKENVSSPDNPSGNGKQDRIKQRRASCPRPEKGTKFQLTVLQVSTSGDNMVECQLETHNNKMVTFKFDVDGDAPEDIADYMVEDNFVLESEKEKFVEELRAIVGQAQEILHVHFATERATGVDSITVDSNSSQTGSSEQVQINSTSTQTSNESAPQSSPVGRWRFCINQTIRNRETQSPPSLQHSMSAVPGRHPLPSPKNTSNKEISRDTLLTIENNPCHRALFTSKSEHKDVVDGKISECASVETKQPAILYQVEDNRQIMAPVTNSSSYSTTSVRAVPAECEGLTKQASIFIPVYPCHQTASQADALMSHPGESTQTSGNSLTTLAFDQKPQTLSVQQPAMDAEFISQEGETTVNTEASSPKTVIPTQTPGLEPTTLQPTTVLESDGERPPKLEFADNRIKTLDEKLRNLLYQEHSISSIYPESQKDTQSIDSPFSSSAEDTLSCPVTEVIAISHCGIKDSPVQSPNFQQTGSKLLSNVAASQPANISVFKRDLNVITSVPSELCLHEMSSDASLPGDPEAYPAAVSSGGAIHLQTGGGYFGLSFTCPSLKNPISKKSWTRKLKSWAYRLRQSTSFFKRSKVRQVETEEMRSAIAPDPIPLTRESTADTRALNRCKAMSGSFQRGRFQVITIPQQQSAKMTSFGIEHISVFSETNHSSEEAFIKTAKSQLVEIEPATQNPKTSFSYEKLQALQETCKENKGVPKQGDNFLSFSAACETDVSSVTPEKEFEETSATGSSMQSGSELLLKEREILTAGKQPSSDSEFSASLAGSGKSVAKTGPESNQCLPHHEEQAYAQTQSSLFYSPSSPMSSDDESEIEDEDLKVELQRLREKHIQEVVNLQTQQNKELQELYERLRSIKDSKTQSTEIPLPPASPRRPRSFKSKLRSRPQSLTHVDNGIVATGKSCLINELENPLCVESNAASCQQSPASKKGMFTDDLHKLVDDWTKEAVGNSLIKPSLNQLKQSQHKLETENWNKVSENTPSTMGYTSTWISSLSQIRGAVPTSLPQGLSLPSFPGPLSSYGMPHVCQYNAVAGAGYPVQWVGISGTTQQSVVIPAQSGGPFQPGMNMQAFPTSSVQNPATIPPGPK
Summary of the method: as §1

Row | Compound | remaining activity at 1 µM (STK38/NDR1) | remaining activity at 1 µM (ITK) | remaining activity at 1 µM (DYRK1B) | remaining activity at 1 µM (GRK7) | remaining activity at 1 µM (TSSK2) | remaining activity at 1 µM (TBK1) | remaining activity at 1 µM (SNARK/NUAK2) | remaining activity at 1 µM (TEC) | remaining activity at 1 µM (BRSK2) | remaining activity at 1 µM (DDR1) | remaining activity at 1 µM (ERN1/IRE1) | remaining activity at 1 µM (PLK3) | remaining activity at 1 µM (LYN) | remaining activity at 1 µM (FGR) | remaining activity at 1 µM (IR) | remaining activity at 1 µM (GRK6) | remaining activity at 1 µM (PKCETA) | remaining activity at 1 µM (YSK4/MAP3K19) | remaining activity at 1 µM (ZAP70) | remaining activity at 1 µM (AURORA A) | other results
1 | Cc1cn(-c2cc(C(=O)Nc3ccc(C)c(N4Cc5cnc(NC6CC6)nc5C5(CC5)C4=O)c3)cc(C(F)(F)F)c2)cn1 [Compound 8, N-(3-(2'-(cyclopropylamino)-7'-oxo-5'H-spiro[cyclopropane-1,8'-pyrido[4,3-d]pyrimidine]-6'(7'H)-yl)-4-methylphenyl)-3-(4-methyl-1H-imidazol-1-yl)-5-(trifluoromethyl)benzamide] | > 40% | > 40% | > 40% | > 40% | > 40% | > 40% | > 40% | ≤ 40% | > 40% | ≤ 40% | > 40% | > 40% | ≤ 40% | ≤ 40% | > 40% | > 40% | > 40% | ≤ 40% | > 40% | > 40% | remaining activity at 1 µM (CAMK1A; CAMK1A): > 40%; remaining activity at 1 µM (P38B/MAPK11; P38B/MAPK11, 1 µM): ≤ 40%; remaining activity at 1 µM (CAMK1D; CAMK1D): > 40%; remaining activity at 1 µM (CK1G2; CK1G2, 1 µM): > 40%; remaining activity at 1 µM (CK1D; CK1D): > 40%; remaining activity at 1 µM (ALK4/ACVR1B): > 40%; remaining activity at 1 µM (CDK1/CYCLIN E): > 40%; remaining activity at 1 µM (VRK1): > 40%; remaining activity at 1 µM (MYLK3): > 40%; remaining activity at 1 µM (RSK1): ≤ 40%; remaining activity at 1 µM (NEK3): > 40%; remaining activity at 1 µM (BRSK1): > 40%; remaining activity at 1 µM (PKG2/PRKG2): > 40%; remaining activity at 1 µM (WNK3): > 40%
2 | Cc1ccc(Nc2ncc3c(n2)C2(CC2)C(=O)N(c2cc(NC(=O)c4cccc(C(F)(F)F)c4)ccc2C)C3)cn1 [Compound 51, N-(4-methyl-3-(2'-((6-methylpyridin-3-yl)amino)-7'-oxo-5'H-spiro[cyclopropane-1,8'-pyrido[4,3-d]pyrimidine]-6'(7'H)-yl)phenyl)-3-(trifluoromethyl)benzamide] | > 40% | > 40% | > 40% | > 40% | > 40% | > 40% | > 40% | ≤ 40% | > 40% | ≤ 40% | > 40% | > 40% | ≤ 40% | ≤ 40% | > 40% | > 40% | > 40% | ≤ 40% | > 40% | > 40% | remaining activity at 1 µM (CAMK1A; CAMKla): > 40%; remaining activity at 1 µM (P38B/MAPK11; P38b/MAPK11, 1 µM): ≤ 40%; remaining activity at 1 µM (CAMK1D; CAMK1d): > 40%; remaining activity at 1 µM (CK1G2; CKlg2, 1 µM): > 40%; remaining activity at 1 µM (CK1D; CKld): > 40%; remaining activity at 1 µM (ALK4/ACVR1B): > 40%; remaining activity at 1 µM (CDK1/CYCLIN E): > 40%; remaining activity at 1 µM (VRK1): > 40%; remaining activity at 1 µM (MYLK3): > 40%; remaining activity at 1 µM (RSK1): ≤ 40%; remaining activity at 1 µM (NEK3): > 40%; remaining activity at 1 µM (BRSK1): > 40%; remaining activity at 1 µM (PKG2/PRKG2): > 40%; remaining activity at 1 µM (WNK3): > 40%
